Tests used:
[1] = Water activity (aw) by Dewpoint aw meter; format: physicochemical; conditions: 200 mM organic acid
[2] = system: desiccated Salmonella enterica subsp. enterica serovar Enteritidis phage type 30 (ATCC BAA-1045); experiment: Antimicrobial assay against cells desiccated on stainless-steel coupons; format: cell-based; conditions: 200 mM organic acid, 30-min contact; for MLR ± SD, W/O emulsion, 22° C. / MLR ± SD, W/O emulsion, 45° C.: 1% v/v water; for MLR ± SD, W/O emulsion, 22° C. / MLR ± SD, W/O emulsion, 45° C. / MLR ± SD, W/O emulsion with glycerol, 45° C. / MLR ± SD, W/O emulsion with glycerol, 22° C.: 75% ERH; for MLR ± SD, Oil with PGPR, 45° C. / MLR ± SD, Oil with PGPR, 22° C.: cells desiccated to 75% ERH

Compound	measured solution aw of acidified oil [1]	MLR ± SD, W/O emulsion, 22° C. [2]	MLR ± SD, W/O emulsion, 45° C. [2]	MLR ± SD, W/O emulsion with glycerol, 45° C. [2]	MLR ± SD, Oil with PGPR, 45° C. [2]	MLR ± SD, W/O emulsion with glycerol, 22° C. [2]	MLR ± SD, Oil with PGPR, 22° C. [2]	MLR ± SD, Oil with PGPR, 22° C. ([2]; listed as C2)	MLR ± SD, Oil with PGPR, 45° C. ([2]; listed as C2)	MLR ± SD, Oil with PGPR, 22° C. ([2]; listed as C3)	MLR ± SD, Oil with PGPR, 45° C. ([2]; listed as C3)
O=CO [Formic, formic/methanoic acid]	0.51										
CCCCCCCCC(=O)O [Pelargonic, pelargonic/nonanoic acid]		0.31 ± 0.10	>6.52	0.30 ± 0.09	0.39 ± 0.11						
CCCCCCCCCC(=O)O [Capric, capric/decanoic acid]		0.67 ± 0.17	>6.52	0.57 ± 0.09	0.28 ± 0.09	0.37 ± 0.06	0.23 ± 0.04				
CCCC(=O)O [Butyric, butyric/butanoic acid]		0.55 ± 0.06	>6.52	1.40 ± 0.31	0.52 ± 0.13	0.31 ± 0.16					
CCCCCCCCCCC(=O)O [Undecylic, undecylic/undecanoic acid]		0.38 ± 0.09	>6.52	0.22 ± 0.18	0.31 ± 0.03						
CCCCCCCC(=O)O [Caprylic, caprylic/octanoic acid]		0.94 ± 0.26	>6.52	0.74 ± 0.11	0.49 ± 0.26	0.56 ± 0.18					
CCCCCCC(=O)O [Enanthic, enanthic/heptanoic acid]		0.34 ± 0.26	>6.52	0.79 ± 0.22	0.34 ± 0.03						
CC(=O)O [Acetic, acetic/ethanoic acid]		>6.52	>6.52	2.53 ± 0.75	1.42 ± 0.14	0.81 ± 0.24	0.69 ± 0.19	0.69	1.42		
CCCCC(=O)O [Valeric, valeric/pentanoic acid]		0.11 ± 0.05	>6.52	1.12 ± 0.16	0.31 ± 0.02						
CCCCCC(=O)O [Caproic, caproic/hexanoic acid]		0.72 ± 0.18	>6.52	0.74 ± 0.48	0.68 ± 0.08	0.10 ± 0.03	0.21 ± 0.09				
CCCCCCCCCCCC(=O)O [Lauric, lauric/dodecanoic acid]		1.05 ± 0.28	>6.52	1.02 ± 0.04	0.40 ± 0.17	0.49 ± 0.12	0.16 ± 0.06				
CCC(=O)O [Propionic, propionic/propanoic acid]		>6.52	>6.52	1.41 ± 0.66	1.11 ± 0.27	0.73 ± 0.22	0.89 ± 0.24			0.89	1.11
